Assay results reported in patent US9840513B2 (AbbVie S.à.r.l., priority 2015, dated 2017).
pEC50: −log10 of the molar value.

Target: T1, F508delCFTR cell surface expression in CFBE41o-F508delCFTR-HRP cells (Homo sapiens, UniProt P13569, DEL508-508)
T1 construct: fused on or other part: Horseradish peroxidase (HRP) reporter inserted in the fourth exofacial (extracellular) loop of CFTR; expression is doxycycline-inducible
Experiment: Cell Surface Expression-Horse Radish Peroxidase (CSE-HRP) Assay
Format: cell-based
Details: for pEC50: CFBE41o-F508delCFTR-HRP cells, 18-24 hours at 33° C., 8-point curve, highest concentration 20 μM; for Maximum % activity (%): maximum at any tested concentration, normalized to on-plate positive control (3 μM)
Text: Cell Surface Expression-Horse Radish Peroxidase (CSE-HRP) Assay:
A cellular assay for measuring the F508delCFTR cell surface expression after correction with test compounds was developed in human lung derived epithelial cell line (CFBE41o-) (Veit G et al, (2012) Mol Biol Cell. 23(21): 4188-4202). This was achieved by expressing the F508delCFTR mutation along with a horseradish peroxidase (HRP) in the fourth exofacial loop and then measuring the HRP activity using luminescence readout from these cells, CFBE41o-F508delCFTR-HRP, that were incubated overnight with the test corrector compounds. Briefly, for this primary assay, the CFBE41o-F508delCFTR-HRP cells were plated in 384-well plates (Greiner Bio-one; Cat 781080) at 4,000 cells/well along with 0.5 μg/mL doxycycline to induce the F508delCFTR-HRP expression and further incubated at 37° C., 5% CO2 for 72 hours. The test compounds were then added at the required concentrations and further incubated for 18-24 hours at 33° C. The highest concentration tested was 20 μM with an 8-point concentration response curve using a 3-fold dilution. Three replicate plates were run to determine one EC50. All plates contained negative controls (dimethyl sulfoxide, DMSO) and positive controls (3 μM of 3-[(2R,4R)-4-({[1-(2,2-difluoro-1,3-benzodioxol-5-yl)cyclopropyl]carbonyl}amino)-7-methoxy-3,4-dihydro-2H-chromen-2-yl]benzoic acid) as well as on-plate concentration response of the positive control. Post incubation, the plates were washed 5× times with Dulbecco's phosphate buffered saline (DPBS), followed by the addition of the HRP substrate, luminol (50 μL), and measuring the HRP activity using luminescence readout on EnVision® Multilabel Plate Reader (Perkin Elmer; product number 2104-0010). The raw counts from the experiment are analyzed using Accelrys® Assay Explorer v3.3.
Z′ greater than 0.5 was used as passing quality control criteria for the plates.
The Z′ is defined as: 1−[3*SDPositive Control+3*SDNegative Control/Absolute(MeanPositive Control−MeanNegative Control)] wherein “SD” is standard deviation.
The % activity measured at each of the 8 test concentrations of the test compound was normalized to the on-plate positive control using the following formula: % activity=[(test compound response DMSO response)/(positive control response DMSO response)]*100
The maximum % activity achieved for the test compound at any tested concentration is presented in Table 1 along with the EC50 calculated using the following general sigmoidal curve with variable Hill slope equation (described as Model 42 in the Accelrys® Assay Explorer v3.3 software): y=(a−d)/(1+(x/c)^b)+d
General sigmoidal curve with concentration, response, top, bottom, EC50 and Hill slope.
This model describes a sigmoidal curve with an adjustable baseline, a. The equation can be used to fit curves where response is either increasing or decreasing with respect to the independent variable, “x”.
“x” is a concentration of drug under test.
“a” is the maximum response, and “d” is the minimum response
“c” is the inflection point (EC50) for the curve. That is, “y” is halfway between the lower and upper asymptotes when x=c.
“b” is the slope-factor or Hill coefficient. The sign of b is positive when the response increases with increasing dose and is negative when the response decreases with increasing dose (inhibition).

T1 sequence (P13569 with tags, fused parts or gaps DEL508-508 limits assumed): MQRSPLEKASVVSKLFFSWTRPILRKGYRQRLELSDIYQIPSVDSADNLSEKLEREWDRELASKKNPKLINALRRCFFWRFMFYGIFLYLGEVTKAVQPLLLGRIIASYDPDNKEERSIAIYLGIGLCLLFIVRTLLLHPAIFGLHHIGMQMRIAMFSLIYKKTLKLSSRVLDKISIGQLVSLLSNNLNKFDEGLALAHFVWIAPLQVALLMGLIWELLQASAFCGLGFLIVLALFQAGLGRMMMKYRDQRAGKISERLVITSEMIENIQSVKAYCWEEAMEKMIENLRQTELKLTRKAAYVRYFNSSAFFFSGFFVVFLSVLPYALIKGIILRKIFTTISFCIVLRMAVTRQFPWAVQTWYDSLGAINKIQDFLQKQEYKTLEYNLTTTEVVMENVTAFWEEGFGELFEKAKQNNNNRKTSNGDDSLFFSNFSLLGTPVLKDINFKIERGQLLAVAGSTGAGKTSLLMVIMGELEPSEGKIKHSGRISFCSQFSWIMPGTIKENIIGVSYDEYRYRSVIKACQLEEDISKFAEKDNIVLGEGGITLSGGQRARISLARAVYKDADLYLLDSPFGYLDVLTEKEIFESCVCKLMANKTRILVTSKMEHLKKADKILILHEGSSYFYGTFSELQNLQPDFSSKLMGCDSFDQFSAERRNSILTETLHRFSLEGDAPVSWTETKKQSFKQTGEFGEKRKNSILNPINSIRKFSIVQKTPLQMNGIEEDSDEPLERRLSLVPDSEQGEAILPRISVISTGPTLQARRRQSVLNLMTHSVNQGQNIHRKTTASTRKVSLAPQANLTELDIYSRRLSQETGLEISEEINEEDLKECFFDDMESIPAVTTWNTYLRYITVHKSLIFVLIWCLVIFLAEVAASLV
T1 sequence (P13569 919-1480 limits assumed, stated change not applied): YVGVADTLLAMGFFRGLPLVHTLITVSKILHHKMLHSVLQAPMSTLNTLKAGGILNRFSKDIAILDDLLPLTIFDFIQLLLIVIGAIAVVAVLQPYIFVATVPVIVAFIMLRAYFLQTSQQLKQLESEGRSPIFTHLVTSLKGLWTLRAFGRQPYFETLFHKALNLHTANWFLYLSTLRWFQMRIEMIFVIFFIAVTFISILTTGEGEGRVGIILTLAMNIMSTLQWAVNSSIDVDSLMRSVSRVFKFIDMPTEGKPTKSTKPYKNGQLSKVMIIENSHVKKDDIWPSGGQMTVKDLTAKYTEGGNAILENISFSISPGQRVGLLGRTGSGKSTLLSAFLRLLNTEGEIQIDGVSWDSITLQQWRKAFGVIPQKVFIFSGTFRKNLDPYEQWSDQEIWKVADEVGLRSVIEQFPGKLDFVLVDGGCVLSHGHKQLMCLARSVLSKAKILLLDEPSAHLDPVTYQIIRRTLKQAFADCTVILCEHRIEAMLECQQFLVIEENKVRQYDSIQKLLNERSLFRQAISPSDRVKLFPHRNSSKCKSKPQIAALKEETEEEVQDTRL

Row | Compound | pEC50 | Maximum % activity (%)
1 | COC(=O)c1cccc([C@H]2C[C@@H](NC(=O)C3(C)CCc4cc5c(cc43)OC(F)(F)O5)c3ccc(OC)cc3O2)c1 (stereo partly drawn) [Example 52, methyl 3-{(2R,4R)-4-[(2,2-difluoro-5-methyl-6,7-dihydro-2H,5H-indeno[5,6-d][1,3]dioxole-5-carbonyl)amino]-7-methoxy-3,4-dihydro-2H-1-benzopyran-2-yl}benzoate] | 6.02 | 77
2 | CC1(C(=O)Nc2nnc(-c3ccc(C(=O)O)cc3)s2)COc2cc3c(cc21)OC(F)(F)O3 (stereo not drawn) [Example 53, 4-{5-[(2,2-difluoro-7-methyl-6,7-dihydro-2H-furo[2,3-f][1,3]benzodioxole-7-carbonyl)amino]-1,3,4-thiadiazol-2-yl}benzoic acid] | < 4.70 | 1
3 | CC1(C(=O)Nc2cccc(-c3ccccc3)n2)COc2cc3c(cc21)OC(F)(F)O3 (stereo not drawn) [Example 55, 2,2-difluoro-7-methyl-N-(6-phenylpyridin-2-yl)-6,7-dihydro-2H-furo[2,3-f][1,3]benzodioxole-7-carboxamide] | 5.18 | 159
4 | C[C@]1(C(=O)N[C@@H]2C[C@H](c3ccc(C(=O)O)cc3)Oc3ccccc32)CCc2cc3c(cc21)OC(F)(F)O3 [Example 59, 4-[(2R,4R)-4-{[(5S)-2,2-difluoro-5-methyl-6,7-dihydro-211,51-indeno[5,6-d][1,3]dioxole-5-carbonyl]amino}-3,4-dihydro-2H-1-benzopyran-2-yl]benzoic acid] | 5.56 | 50
5 | CC1(C(=O)Nc2ccc(N3CC(C(=O)O)C3)cc2)COc2cc3c(cc21)OC(F)(F)O3 (stereo not drawn) [Example 61, 1-{4-[(2,2-difluoro-7-methyl-6,7-dihydro-2H-furo[2,3-f][1,3]benzodioxole-7-carbonyl)amino]phenyl}azetidine-3-carboxylic acid] | < 4.70 | 8
6 | Cc1c(C(=O)O)ncn1-c1ccc(C(F)(F)F)cc1NC(=O)C1(C)COc2cc3c(cc21)OC(F)(F)O3 (stereo not drawn) [Example 62, 1-{2-[(2,2-difluoro-7-methyl-6,7-dihydro-2H-furo[2,3-f][1,3]benzodioxole-7-carbonyl)amino]-4-(trifluoromethyl)phenyl}-5-methyl-1H-imidazole-4-carboxylic acid] | < 4.70 | 12
7 | CC1(C(=O)Nc2nc(-c3ccc(C#N)cc3)cs2)COc2cc3c(cc21)OC(F)(F)O3 (stereo not drawn) [Example 63, N-[4-(4-cyanophenyl)-1,3-thiazol-2-yl]-2,2-difluoro-7-methyl-6,7-dihydro-2H-furo[2,3-f][1,3]benzodioxole-7-carboxamide] | 5.06 | 41
8 | CC1(C(=O)Nc2cccc(C(=O)NC[C@@H](O)CO)n2)COc2cc3c(cc21)OC(F)(F)O3 (stereo partly drawn) [Example 65, 6-[(2,2-difluoro-7-methyl-6,7-dihydro-2H-furo[2,3-f][1,3]benzodioxole-7-carbonyl)amino]-N-[(2R)-2,3-dihydroxypropyl]pyridine-2-carboxamide] | < 4.70 | 1
9 | COC(=O)c1ccc(-c2cccc(NC(=O)C3(C)COc4cc5c(cc43)OC(F)(F)O5)c2)cc1 (stereo not drawn) [Example 66, methyl 3′-[(2,2-difluoro-7-methyl-6,7-dihydro-2H-furo[2,3-f][1,3]benzodioxole-7-carbonyl)amino][1,1′-biphenyl]-4-carboxylate] | 5.39 | 160
10 | CC1(C(=O)Nc2nc(-c3ccc(C(=O)O)cc3)cs2)COc2cc3c(cc21)OC(F)(F)O3 (stereo not drawn) [Example 68, 4-{2-[(2,2-difluoro-7-methyl-6,7-dihydro-2H-furo[2,3-f][1,3]benzodioxole-7-carbonyl)amino]-1,3-thiazol-4-yl}benzoic acid] | 5.35 | 44
11 | CC1(C(=O)Nc2cccc(-c3ccc(C(=O)O)cc3)c2)COc2cc3c(cc21)OC(F)(F)O3 (stereo not drawn) [Example 69, 3′-[(2,2-difluoro-7-methyl-6,7-dihydro-2H-furo[2,3-f][1,3]benzodioxole-7-carbonyl)amino][1,1′-biphenyl]-4-carboxylic acid] | 5.86 | 183
12 | CC1(C(=O)Nc2cccc(N3CCC(C(=O)O)CC3)n2)COc2cc3c(cc21)OC(F)(F)O3 (stereo not drawn) [Example 71, 1-{6-[(2,2-difluoro-7-methyl-6,7-dihydro-2H-furo[2,3-f][1,3]benzodioxole-7-carbonyl)amino]pyridin-2-yl}piperidine-4-carboxylic acid] | 5.91 | 128
13 | C[C@]1(C(=O)Nc2ccc(N3CCC(O)C3)nc2)COc2cc3c(cc21)OC(F)(F)O3 (stereo partly drawn) [Example 72, (7R)-2,2-difluoro-N-[6-(3-hydroxypyrrolidin-1-yl)pyridin-3-yl]-7-methyl-6,7-dihydro-2H-furo[2,3-f][1,3]benzodioxole-7-carboxamide] | 5.04 | 28
14 | C[C@]1(C(=O)Nc2cccc(-c3cccc(C(=O)O)c3)n2)COc2cc3c(cc21)OC(F)(F)O3 [Example 73, 3-(6-{[(7R)-2,2-difluoro-7-methyl-6,7-dihydro-2H-furo[2,3-f][1,3]benzodioxole-7-carbonyl]amino}pyridin-2-yl)benzoic acid] | 5.58 | 117

Second part, the compound after the results:

Row | pEC50 | Maximum % activity (%) | Compound
15 | 5.19 | 151 | CC1(C(=O)Nc2cccc(-c3ccccc3)c2)COc2cc3c(cc21)OC(F)(F)O3 (stereo not drawn) [Example 54, N-([1,1′-biphenyl]-3-yl)-2,2-difluoro-7-methyl-6,7-dihydro-2H-furo[2,3-f][1,3]benzodioxole-7-carboxamide]
16 | 6.20 | 152 | Cc1ccc(NC(=O)C2(C)COc3cc4c(cc32)OC(F)(F)O4)cc1-c1cccc(C(=O)O)c1 (stereo not drawn) [Example 60, 5′-[(2,2-difluoro-7-methyl-6,7-dihydro-2H-furo[2,3-f][1,3]benzodioxole-7-carbonyl)amino]-2′-methyl[1,1′-biphenyl]-3-carboxylic acid]
17 | 5.14 | 46 | COC(=O)c1ccc(-c2csc(NC(=O)C3(C)COc4cc5c(cc43)OC(F)(F)O5)n2)cc1 (stereo not drawn) [Example 64, methyl 4-{2-[(2,2-difluoro-7-methyl-6,7-dihydro-2H-furo[2,3-f][1,3]benzodioxole-7-carbonyl)amino]-1,3-thiazol-4-yl}benzoate]
18 | 5.08 | 70 | CC1(C(=O)Nc2cccc(F)n2)COc2cc3c(cc21)OC(F)(F)O3 (stereo not drawn) [Example 67, 2,2-difluoro-N-(6-fluoropyridin-2-yl)-7-methyl-6,7-dihydro-2H-furo[2,3-f][1,3]benzodioxole-7-carboxamide]
19 | 5.89 | 116 | COC(=O)C1CCN(c2cccc(NC(=O)C3(C)COc4cc5c(cc43)OC(F)(F)O5)n2)CC1 (stereo not drawn) [Example 70, methyl 1-{6-[(2,2-difluoro-7-methyl-6,7-dihydro-2H-furo[2,3-f][1,3]benzodioxole-7-carbonyl)amino]pyridin-2-yl}piperidine-4-carboxylate]
20 | 6.15 | 105 | Cc1ccc(NC(=O)C2(C)COc3cc4c(cc32)OC(F)(F)O4)nc1-c1cccc(C(N)=O)c1 (stereo not drawn) [Example 74, N-[6-(3-carbamoylphenyl)-5-methylpyridin-2-yl]-2,2-difluoro-7-methyl-6,7-dihydro-2H-furo[2,3-f][1,3]benzodioxole-7-carboxamide]
21 | 5.76 | 94 | Cc1ccc(NC(=O)C2(C)COc3cc4c(cc32)OC(F)(F)O4)nc1-c1cccc(C(=O)N(C)C)c1 (stereo not drawn) [Example 75, N-{6-[3-(dimethylcarbamoyl)phenyl]-5-methylpyridin-2-yl}-2,2-difluoro-7-methyl-6,7-dihydro-2H-furo[2,3-f][1,3]benzodioxole-7-carboxamide]
